The NIST ThermoML archive (doi:10.1016/j.jct.2015.01.014)

Settings: Liquid, Transpiration method

OCCCO [propan-1,3-diol]
Settings | vapor or sublimation pressure [kPa]
292.5 K | 0.00167
296.4 K | 0.00239
300.4 K | 0.00346
306.3 K | 0.00584
338.7 K | 0.08145
344.3 K | 0.1208
346.4 K | 0.139
